Results: ChEMBL document CHEMBL3044807, “Synthesis and biological evaluation of new ozonides with improved plant growth regulatory activity” (2009)

Tests used:
Assay type in all cases: functional
Sorghum bicolor [1] = experiment: Phytotoxic activity against Sorghum bicolor seedlings assessed as inhibition of radicle growth at 5x10'-4 mol/l at 28 +/-1 degC after 48 hr by acid-washed sand based radicle elongation assay (reference value: 0.0%)
Sorghum bicolor [2] = experiment: Phytotoxic activity against Sorghum bicolor assessed as aerial part growth inhibition at 5.0 x 10^-4 mol/l measured 15 days after seed sowing under greenhouse trials (reference value: 0.0%); conditions: 360 h
Cucumis sativus [3] = experiment: Phytotoxic activity against Cucumis sativus (cucumber) seedlings assessed as germination at 5x10'-4 mol/l at 28 +/-1 degC after 48 hr by acid-washed sand based radicle elongation assay (reference value: 100%)
Sorghum bicolor [4] = experiment: Phytotoxic activity against Sorghum bicolor seedlings assessed as radicle length at 5x10'-4 mol/l at 28 +/-1 degC after 48 hr by acid-washed sand based radicle elongation assay (reference value: 5.1 cm)
Cucumis sativus [5] = experiment: Phytotoxic activity against Cucumis sativus (cucumber) assessed as weight of aerial parts at 5.0 x 10^-4 mol/l measured 15 days after seed sowing under greenhouse trials (reference value: 47.0 mg)
Sorghum bicolor [6] = experiment: Phytotoxic activity against Sorghum bicolor assessed as weight of aerial parts at 5.0 x 10^-4 mol/l measured 15 days after seed sowing under greenhouse trials (reference value: 19.0 mg)
Cucumis sativus [7] = experiment: Phytotoxic activity against Cucumis sativus (cucumber) assessed as weight of roots at 5.0 x 10^-4 mol/l measured 15 days after seed sowing under greenhouse trials (reference value: 31.0 mg)
Cucumis sativus [8] = experiment: Phytotoxic activity against Cucumis sativus (cucumber) assessed as root growth inhibition at 5.0 x 10^-4 mol/l measured 15 days after seed sowing under greenhouse trials (reference value: 0.0%); conditions: 360 h
Sorghum bicolor [9] = experiment: Phytotoxic activity against Sorghum bicolor assessed as weight of roots at 5.0 x 10^-4 mol/l measured 15 days after seed sowing under greenhouse trials (reference value: 14.0 mg)
Sorghum bicolor [10] = experiment: Phytotoxic activity against Sorghum bicolor seedlings assessed as germination at 5x10'-4 mol/l at 28 +/-1 degC after 48 hr by acid-washed sand based radicle elongation assay (reference value: 100%)
Cucumis sativus [11] = experiment: Phytotoxic activity against Cucumis sativus (cucumber) seedlings assessed as inhibition of radicle growth at 5x10'-4 mol/l at 28 +/-1 degC after 48 hr by acid-washed sand based radicle elongation assay (reference value: 0.0%)
Cucumis sativus [12] = experiment: Phytotoxic activity against Cucumis sativus (cucumber) seedlings assessed as radicle length at 5x10'-4 mol/l at 28 +/-1 degC after 48 hr by acid-washed sand based radicle elongation assay (reference value: 4.8 cm)
Cucumis sativus [13] = experiment: Phytotoxic activity against Cucumis sativus (cucumber) assessed as aerial part growth inhibition at 5.0 x 10^-4 mol/l measured 15 days after seed sowing under greenhouse trials (reference value: 0.0%); conditions: 360 h
Sorghum bicolor [14] = experiment: Phytotoxic activity against Sorghum bicolor assessed as root growth inhibition at 5.0 x 10^-4 mol/l measured 15 days after seed sowing under greenhouse trials (reference value: 0.0%); conditions: 360 h
Ipomoea grandifolia [15] = experiment: Phytotoxic activity against Ipomoea grandifolia assessed as root growth inhibition at 5.0 x 10^-4 mol/l measured 21 days after seed sowing under greenhouse trials (reference value: 0.0%); conditions: 504 h
Ipomoea grandifolia [16] = experiment: Phytotoxic activity against Ipomoea grandifolia assessed as weight of root at 5.0 x 10^-4 mol/l measured 21 days after seed sowing under greenhouse trials (reference value: 18.4 mg)
Urochloa decumbens [17] = experiment: Phytotoxic activity against Urochloa decumbens assessed as root growth inhibition at 5.0 x 10^-4 mol/l measured 21 days after seed sowing under greenhouse trials (reference value: 0.0%); conditions: 504 h
Urochloa decumbens [18] = experiment: Phytotoxic activity against Urochloa decumbens assessed as weight of aerial parts at 5.0 x 10^-4 mol/l measured 21 days after seed sowing under greenhouse trials (reference value: 22.0 mg)
Urochloa decumbens [19] = experiment: Phytotoxic activity against Urochloa decumbens assessed as aerial part growth inhibition at 5.0 x 10^-4 mol/l measured 21 days after seed sowing under greenhouse trials (reference value: 0.0%); conditions: 504 h
Ipomoea grandifolia [20] = experiment: Phytotoxic activity against Ipomoea grandifolia assessed as weight of aerial parts at 5.0 x 10^-4 mol/l measured 21 days after seed sowing under greenhouse trials (reference value: 17.8 mg)
Ipomoea grandifolia [21] = experiment: Phytotoxic activity against Ipomoea grandifolia assessed as aerial part growth inhibition at 5.0 x 10^-4 mol/l measured 21 days after seed sowing under greenhouse trials (reference value: 0.0%); conditions: 504 h
Urochloa decumbens [22] = experiment: Phytotoxic activity against Urochloa decumbens assessed as weight of root at 5.0 x 10^-4 mol/l measured 21 days after seed sowing under greenhouse trials (reference value: 21.2 mg)

Row | Compound | inhibition at 500 µM (Sorghum bicolor [1]) | inhibition at 500 µM (Sorghum bicolor [2]) | germination % at 500 µM (Cucumis sativus [3]) | Activity (Sorghum bicolor [4]) | Activity (Cucumis sativus [5]) | Activity (Sorghum bicolor [6]) | Activity (Cucumis sativus [7]) | inhibition at 500 µM (Cucumis sativus [8]) | Activity (Sorghum bicolor [9]) | germination % at 500 µM (Sorghum bicolor [10]) | inhibition at 500 µM (Cucumis sativus [11]) | Activity (Cucumis sativus [12]) | inhibition at 500 µM (Cucumis sativus [13]) | inhibition at 500 µM (Sorghum bicolor [14]) | other results
1 | CC1=C2CCC(C)C[C@@]23O[C@H]1[C@H](C)C(=O)[C@H]3C (some centres not stated) | 71.4% | 26.3% | 96% | 1.5 cm | 44.2 mg | 14 mg | 20.3 mg | 34.4% | 13.1 mg | 96% | 72.4% | 1.3 cm | 5.9% | 6.2% | 
2 | CC[C@@H]1C(=O)[C@@H](CC)[C@@]23CC(C)CCC2=C(C)[C@H]1O3 (some centres not stated) | 68% | 28.1% | 96% | 1.7 cm | 30.7 mg | 13.7 mg | 6.3 mg | 79.7% | 12.7 mg | 93% | 62.9% | 1.8 cm | 34.6% | 9.3% | inhibition at 500 µM (Ipomoea grandifolia [15]): 85.3%; Activity (Ipomoea grandifolia [16]): 2.4 mg; inhibition at 500 µM (Urochloa decumbens [17]): 85.5%; Activity (Urochloa decumbens [18]): 5.4 mg; inhibition at 500 µM (Urochloa decumbens [19]): 75.3%; Activity (Ipomoea grandifolia [20]): 6.9 mg; inhibition at 500 µM (Ipomoea grandifolia [21]): 61.8%; Activity (Urochloa decumbens [22]): 3.4 mg
3 | O=C1[C@@H]2CCCC[C@@H]1[C@@H]1C=C[C@@H]2O1 | 62% | 4.5% | 90% | 1.9 cm | 32.7 mg | 18.1 mg | 16.5 mg | 47.3% | 13.1 mg | 93% | 82.2% | 0.9 cm | 30.4% | 6.2% | 
4 | C[C@@]12C=C[C@H](O1)[C@H]1CCCC[C@H]2C1=O | 58.9% | 42.6% | 95% | 2.1 cm | 26 mg | 10.9 mg | 17.6 mg | 43.1% | 9.7 mg | 99% | 74.7% | 1.2 cm | 44.6% | 30.7% | 
5 | CC[C@@]12C=C[C@H](O1)[C@H]1CCCC[C@H]2C1=O | 64.2% | 48.8% | 100% | 1.8 cm | 14.5 mg | 9.7 mg | 15.8 mg | 49.2% | 7.7 mg | 100% | 73.2% | 1.3 cm | 69.2% | 49% | 
6 | CC1=C[C@@H]2O[C@]1(C)[C@H]1CCCC[C@H]2C1=O | 82.5% | 47.4% | 96% | 0.9 cm | 16.3 mg | 10 mg | 11.7 mg | 62.1% | 7.1 mg | 79% | 82.1% | 0.9 cm | 65.4% | 49.6% | 
7 | C[C@@]12C=C[C@](C)(O1)[C@H]1CCCC[C@H]2C1=O | 83.4% | 32.9% | 82% | 0.9 cm | 39.7 mg | 12.7 mg | 10.5 mg | 66.2% | 11.9 mg | 100% | 70.7% | 1.4 cm | 15.6% | 14.8% | 
8 | CC(=O)[C@@]12C=C[C@H](O1)[C@H]1CCCC[C@H]2C1=O | 88.5% | 6% | 86% | 0.6 cm | 20 mg | 17.8 mg | 4.9 mg | 84.1% | 10.7 mg | 96% | 82.1% | 0.9 cm | 57.4% | 23.2% | inhibition at 500 µM (Ipomoea grandifolia [15]): 46.2%; Activity (Ipomoea grandifolia [16]): 8.6 mg; inhibition at 500 µM (Urochloa decumbens [17]): 78.4%; Activity (Urochloa decumbens [18]): 7.4 mg; inhibition at 500 µM (Urochloa decumbens [19]): 66.5%; Activity (Ipomoea grandifolia [20]): 10.9 mg; inhibition at 500 µM (Ipomoea grandifolia [21]): 39.4%; Activity (Urochloa decumbens [22]): 4.5 mg
9 | CC12OC(C3OOC1O3)C1CCCCC2C1=O (mixture of isomers) | 71.5% | 20% | 70% | 1.5 cm | 17 mg | 15.4 mg | 10.6 mg | 65.9% | 12.7 mg | 96% | 52% | 2.3 cm | 63.9% | 11.8% | 
10 | CC12OOC(O1)C1OC2(C)C2CCCCC1C2=O (mixture of isomers) | 80.2% | 41.8% | 100% | 1 cm | 32.9 mg | 11.1 mg | 13.2 mg | 57.4% | 9.2 mg | 100% | 84.2% | 0.8 cm | 29.9% | 34.6% | 
11 | CC1CCC23OOC(C)(O2)C2OC3(C1)C(C)C(=O)C2C (mixture of isomers) | 72.1% | 6.8% | 93% | 1.4 cm | 29.7 mg | 17.7 mg | 15.3 mg | 50.8% | 12.7 mg | 96% | 39.9% | 2.9 cm | 36.9% | 9.1% | 
12 | CCC1C(=O)C(CC)C23CC(C)CCC24OOC(C)(O4)C1O3 (mixture of isomers) | 55.1% | 39.6% | 96% | 2.3 cm | 30.1 mg | 11.5 mg | 29 mg | 6.5% | 13.1 mg | 100% | 55.6% | 2.1 cm | 36% | 6.5% | 
13 | C[C@@H]1CC[C@H]2[C@@H](C)C(=O)O[C@@H]3O[C@@]4(C)CC[C@@H]1[C@]32OO4 [ARTEMISININ] |  |  |  |  |  |  |  |  |  |  |  |  |  |  | inhibition at 500 µM (Ipomoea grandifolia [15]): 95%; Activity (Ipomoea grandifolia [16]): 0.7 mg; inhibition at 500 µM (Urochloa decumbens [17]): 95%; Activity (Urochloa decumbens [18]): 2.9 mg; inhibition at 500 µM (Urochloa decumbens [19]): 93.6%; Activity (Ipomoea grandifolia [20]): 1.2 mg; inhibition at 500 µM (Ipomoea grandifolia [21]): 93.6%; Activity (Urochloa decumbens [22]): 3.1 mg
